≈ marks a conversion by molar mass, not a printed value.
Tests used:
[1] = biological target: neutrophil elastase in human plasma (Homo sapiens (Human), UniProt P08246); experiment: Neutrophil elastase inhibitory activity in human plasma; format: biochemical; details: human plasma assay (zymosan-stimulated blood plasma), substrate 250 μM, pH 7.5
Procedure: Assay for the Determination of Neutrophil Elastase Inhibitory Activity in Human Plasma
Citrated blood from human healthy donors is mixed with zymosan suspension and incubated at room temperature. This leads to the stimulation of neutrophils and the release of neutrophil elastase into the plasma. The stimulated blood is centrifuged to generate the neutrophil elastase enriched plasma.
Preparation of Zymosan Working Solution:
Various concentrations of the neutrophil elastase inhibitor are incubated with plasma. […] A dose response curve is generated to calculate the EC50 of the inhibitor.

[2] = biological target: Human neutrophil elastase (Homo sapiens (Human), UniProt P08246); experiment: Human Neutrophil Elastase Assay; format: biochemical; details: substrate MeOSuc-Ala-Ala-Pro-Val-AMC 250 μM, pH 7.5, room temperature
Procedure: The following buffers were used: Compound buffer: 100 mM Tris, 500 mM NaCl, adjusted to pH 7.5; Assay buffer: 100 mM Tris, 500 mM NaCl, adjusted to pH 7.5, containing 0.01% BSA.
Assay conditions: Test compounds were prediluted in DMSO and subsequently in compound buffer (5% DMSO final). […] After inactivation of the enzyme, fluorescence intensities were measured at 380 nm excitation and 460 nm emission wavelengths.
Each plate contains wells with a high value control (DMSO+enzyme+substrate) and wells with a low value control (DMSO+inactivated enzyme+substrate). IC50 values were estimated using a sigmoidal concentration response curve with variable slope. Means of low values were taken as 0%, means of high values as 100%.

[3] = Drug transport across human Caco-2 cells; format: in vitro ADME; details: human, Caco-2 monolayers, pH 7.2, 37° C.; for Papp A→B at 10 µM: apical-to-basal, read-out: PEAB; for Papp B→A at 10 µM: basal-to-apical, read-out: PEBA
Description: (§1) Assay for Determination of Drug Transport Across Human Caco-2 Cells
(§2) The assay provides information on the potential of a compound to pass the cell membrane, on the extent of oral absorption as well as on whether the compound is actively transported by uptake and/or efflux transporters. For the measurement of permeability across polarized, confluent human cancer colon carcinoma cells 2 (Caco-2) cell monolayers grown on permeable filter supports are used as the in vitro absorption model.
(§3) Apparent permeability coefficients (PE) of the compounds across the Caco-2 monolayers are measured (pH 7.2, 37° C.) in apical-to-basal (AB) (absorptive) and basal-to-apical (BA) (secretory) transport direction. AB permeability (PEAB) represents drug absorption from the intestine into the blood and BA permeability (PEBA) drug secretion from the blood back into the intestine via both passive permeability as well as active transport mechanisms mediated by efflux and uptake transporters that are expressed on the Caco-2 cells. The compounds are assigned to permeability/absorption classes by comparison of the AB permeabilities with the AB permeabilities of reference compounds with known in vitro permeability and oral absorption in the human. Identical or similar permeabilities in both transport directions indicate passive permeation, vectorial permeability points to additional active transport mechanisms. […] Active transport is concentration-dependently saturable.
(§4) Caco-2 cells (1-2*10^5 cells/cm^2 area) are seeded on filter inserts (Costar transwell polycarbonate or PET filters, 0.4 μm pore size) and cultured (DMEM) for 10 to 25 days. Compounds are dissolved in appropriate solvent (like DMSO, 1-20 mM stock solutions). Stock solutions are diluted with HTP-4 buffer (128.13 mM NaCl, 5.36 mM KCl, 1 mM MgSO4, 1.8 mM CaCl2, 4.17 mM NaHCO3, 1.19 mM Na2HPO4×7H2O, 0.41 mM NaH2PO4×H2O, 15 mM HEPES, 20 mM glucose, pH 7.2) to prepare the transport solutions (typically 10 μM compound, final DMSO<=0.5%). The transport solution (TL) is applied to the apical or basolateral donor side for measuring A-B or B-A permeability (3 filter replicates), respectively. The receiver side contains HTP-4 buffer supplemented with 2% BSA. Samples are collected at the start and end of experiment from the donor and at various time intervals for up to 2 hours also from the receiver side for concentration measurement by LC-MS/MS or scintillation counting. Sampled receiver volumes are replaced with fresh receiver solution.
(§5) The apparent permeability coefficients (PEAB and PEBA) of selected compounds in the Caco-2 drug transport assay described above are listed in Table 9.

[4] = Metabolic stability with human liver microsomes; format: in vitro ADME; details: pH 7.6; pooled human liver microsomes, 37° C., 1 μM test compound, 1 mg/ml microsomal protein, NADPH; read-out: t1/2 INVITRO
[5] = Aqueous solubility (High Throughput Method); format: physicochemical; details: McIlvaine buffer pH 6.8, 2.5% DMSO, 24 h shaking; for solubility at 24 h: McIlvaine buffer pH 6.8 with 2.5% DMSO, aqueous buffer, kinetic from dmso stock
Procedure: Assay for Determination of Aqueous Solubility (“High Throughput Method”)
Starting from a 10 mM DMSO stock solution, aliquots are diluted with acetonitrile/water (1/1) and McIlvaine buffer pH 6.8, respectively. After 24 h of shaking, the solutions or suspensions are filtered and analyzed by LC-UV. The amount dissolved in buffer is compared to the amount dissolved in the acetonitrile/water (1/1) solution. Solubility is measured from 0.001 to 0.125 mg/ml at a DMSO concentration of 2.5%. If more than 90% of the compound is dissolved in buffer, the value is marked with “>”.

[6] = Metabolic stability with human hepatocytes; format: in vitro ADME; details: human hepatocyte suspension (typically cryopreserved), 1 μM test compound, six hours, scaled with well stirred model
Procedure: Assay for the Determination of Metabolic Stability with Human Hepatocytes
The metabolic degradation of the test compound is assayed in a human hepatocyte suspension. Human hepatocytes (typically cryopreserved) are incubated in an appropriate buffer system (e.g. Dulbecco's modified eagle medium plus 3.5 μg glucagon/500 mL, 2.5 mg insulin/500 mL and 3.75 mg/500 mL hydrocortison) containing 5% species serum. Following a (typically) 30 min preincubation in an incubator (37° C., 10% CO2), 5 μl of test compound solution (80 μM; from 2 mM stock solution in DMSO diluted 1:25 with medium) are added into 395 μl hepatocyte suspension (cell density in the range 0.25-5*10^6 cells/mL, typically 1*10^6 cells/mL; final concentration of test compound 1 μM, final DMSO concentration 0.05%). The cells are incubated for six hours (incubator, orbital shaker) and samples (25 μl) are taken at 0, 0.5, 1, 2, 4 and 6 hours. Samples are transferred into acetonitrile and pelleted by centrifugation (5 min) The supernatant is transferred to a new 96-deepwell plate, evaporated under nitrogen and resuspended. The decline of parent compound is analyzed by LC-MS/MS.
The intrinsic clearance CL_[…] is calculated as follows: CL_[…]=Dose/AUC=(C0/CD)/(AUD+clast/k)*1′000/60 (C0: initial concentration in the incubation [μM], CD: cell density of vital cells [10^6 cells/mL], AUD: area under the data [μM*h], clast: concentration of last data point [μM], k: slope of the regression line for parent decline [h^−1])
The calculated in vitro hepatic intrinsic clearance can be scaled up to the intrinsic in vivo hepatic clearance and used to predict hepatic in vivo blood clearance (CL) by the use of a liver model (well stirred model): CL_[…]_INVIVO [ml/min/kg]=(CL_[…] [μL/min/10^6 cells]*hepatocellularity [10^6 cells/g liver]*liver factor [g/kg bodyweight])/1′000 CL [ml/min/kg]=CL_[…]_INVIVO [ml/min/kg]*hepatic blood flow [ml/min/kg]/(CL_[…]_INVIVO [ml/min/kg]+hepatic blood flow [ml/min/kg]) Qh [%]=CL [ml/min/kg]/hepatic blood flow [ml/min/kg]) (Hepatocellularity, human: 120*10^6 cells/g liver; liver factor, human: 25.7 g/kg bodyweight; blood flow, human: 21 ml/(min*kg))

[7] = Aqueous solubility (Shaked Flask Method); format: physicochemical; details: aqueous buffer, thermodynamic from solid, pH 6.8 (McIlvaine buffer)
Procedure: Assay for Determination of Aqueous Solubility (“Shaked Flask Method”)
Saturated solutions are prepared in well plates by adding an appropriate volume of selected aqueous media (typically in the range of 0.25-1.5 ml) into each well which contains a known quantity of solid drug substance (typically in the range 0.5-5.0 mg). The wells are shaken or stirred for a predefined time period (typically in a range of 2-24 h) and then filtered using appropriate filter membranes (typically PTFE-filters with 0.45 μm pore size). Filter absorption is avoided by discarding the first few drops of filtrate. The amount of dissolved drug substance is determined by UV spectroscopy or by HPLC with UV-detection. In addition, the pH of the aqueous saturated solution is measured using a glass-electrode pH meter.

Caco-2 cells = experiment: Drug transport across human Caco-2 cells; format: in vitro ADME; details: Caco-2 monolayers, pH 7.2, 37° C.
Description: as §1, §2, §3, §4, §5

Sequence of neutrophil elastase in human plasma (P08246 30-247): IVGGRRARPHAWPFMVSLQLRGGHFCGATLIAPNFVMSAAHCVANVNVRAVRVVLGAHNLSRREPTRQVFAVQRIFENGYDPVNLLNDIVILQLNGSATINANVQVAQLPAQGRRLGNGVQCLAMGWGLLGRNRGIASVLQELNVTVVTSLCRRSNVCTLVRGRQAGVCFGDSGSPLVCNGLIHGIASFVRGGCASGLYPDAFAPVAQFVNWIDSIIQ
Sequence of Human neutrophil elastase (P08246 30-247): as above

CN1C(=O)N(c2cccc(C(F)F)c2)C2=C(C(=O)NCC2)[C@H]1c1ccc(C#N)cc1 [Example 8A, (R)-4-(1-(3-(Difluoromethyl)phenyl)-3-methyl-2,5-dioxo-1,2,3,4,5,6,7,8-octahydropyrido[4,3-d]pyrimidin-4-yl)benzonitrile]
IC50 [1]: < 1 nM | IC50 [2]: < 1 nM | Papp A→B at 10 µM [3]: 20 ×10⁻⁶ cm/s | Papp B→A at 10 µM [3]: 97 ×10⁻⁶ cm/s | half-life at 1 μM [4]: > 2.17 h | solubility at 24 h [5]: 61 µg/mL (≈ 149 µM) | CLhep predicted at 1 μM [6]: 2 mL/min/kg

COC(=O)CN1C(=O)N(c2cccc(C(F)(F)F)c2)C2=C(C(=O)NCC2)C1c1ccc(C#N)cc1 (centres unmarked) [Example 9, Methyl 2-(4-(4-Cyanophenyl)-2,5-dioxo-1-(3-(trifluoromethyl)phenyl)-1,2,5,6,7,8-hexahydropyrido[4,3-d]pyrimidin-3(4H)-yl)acetate]
IC50 [1]: 3.1 nM | IC50 [2]: 2.3 nM | Papp A→B at 10 µM [3]: 6.1 ×10⁻⁶ cm/s | Papp B→A at 10 µM [3]: 63 ×10⁻⁶ cm/s | half-life at 1 μM [4]: > 2.17 h | solubility at 24 h [5]: 88 µg/mL (≈ 182 µM)

CN1C(=O)N(c2cccc(C(F)(F)F)c2)C2=C(C(=O)NCC2)[C@H]1c1ccc(C#N)cc1-c1cnco1 [Example 30A, 4-[(4R)-3-Methyl-2,5-dioxo-1-[3-(trifluoromethyl)phenyl]-1H,2H,3H,4H,5H,6H,7H,8H-pyrido[4,3-d]pyrimidin-4-yl]-3-(1,3-oxazol-5-yl)-benzonitrile]
IC50 [1]: < 1 nM | Papp A→B at 10 µM [3]: 11 ×10⁻⁶ cm/s | Papp B→A at 10 µM [3]: 85 ×10⁻⁶ cm/s | half-life at 1 μM [4]: > 2.17 h | solubility at 24 h [5]: 60 µg/mL (≈ 122 µM) | solubility [7]: ≥ 10 µg/mL | CLhep predicted at 1 μM [6]: 3 mL/min/kg

CN1C(=O)N(c2cccc(C(F)(F)F)c2)C2=C(C(=O)NCC2)[C@H]1c1ccc(C#N)cc1CO [Example 32A, 3-(Hydroxymethyl)-4-[(4R)-3-methyl-2,5-dioxo-1-[3-(trifluoromethyl)phenyl]-1H,2H,3H,4H,5H,6H,7H,8H-pyrido[4,3-d]pyrimidin-4-yl]benzonitrile]
IC50 [1]: < 1 nM | IC50 [2]: < 1 nM | Papp A→B at 10 µM [3]: 6.9 ×10⁻⁶ cm/s | Papp B→A at 10 µM [3]: 61 ×10⁻⁶ cm/s | solubility at 24 h [5]: 19 µg/mL (≈ 41.6 µM) | solubility [7]: ≥ 10 µg/mL | CLhep predicted at 1 μM [6]: 3 mL/min/kg

CN1C(=O)N(c2cccc(C(F)(F)F)c2)C2=C(C(=O)NCC2)C1c1ccc(C#N)cc1-c1ccncn1 (centres unmarked) [Example 35, 4-{3-Methyl-2,5-dioxo-1-[3-(trifluoromethyl)phenyl]-1H,2H,3H,4H,5H,6H,7H,8H-pyrido[4,3-d]pyrimidin-4-yl}-3-(pyrimidin-4-yl)benzonitrile]
IC50 [1]: < 1 nM | IC50 [2]: < 1 nM | Papp A→B at 10 µM [3]: 5.7 ×10⁻⁶ cm/s | Papp B→A at 10 µM [3]: 100 ×10⁻⁶ cm/s | half-life at 1 μM [4]: > 2.17 h | solubility at 24 h [5]: 84 µg/mL (≈ 167 µM) | CLhep predicted at 1 μM [6]: 1 mL/min/kg

CN1CCC2=C(C1=O)C(c1ccc(C#N)cc1-c1cnn(C)c1)N(C)C(=O)N2c1cccc(C(F)(F)F)c1 (centres unmarked) [Example 36, 4-{3,6-Dimethyl-2,5-dioxo-1-[3-(trifluoromethyl)phenyl]4H,2H,3H,4H,5H,6H,7H,8H-pyrido[4,3-d]pyrimidin-4-yl}-3-(1-methyl-1H-pyrazol-4-yl)benzonitrile]
IC50 [1]: 2.3 nM | IC50 [2]: < 1 nM | Papp A→B at 10 µM [3]: 30 ×10⁻⁶ cm/s | Papp B→A at 10 µM [3]: 83 ×10⁻⁶ cm/s | half-life at 1 μM [4]: > 2.17 h | solubility at 24 h [5]: 42 µg/mL (≈ 80.7 µM) | solubility [7]: ≥ 10 µg/mL

CN1CCC2=C(C1=O)C(c1ccc(C#N)cc1-c1cccnc1)N(C)C(=O)N2c1cccc(C(F)(F)F)c1 (centres unmarked) [Example 36.1]
IC50 [1]: 1.8 nM | IC50 [2]: 1.4 nM | PEAB (Caco-2 cells; apical-to-basal): 26 ×10⁻⁶ cm/s | PEBA (Caco-2 cells; basal-to-apical): 110 ×10⁻⁶ cm/s | Aqueous solubility [5]: 70 µg/mL

CN1CCC2=C(C1=O)C(c1ccc(C#N)cc1-c1cnco1)N(C)C(=O)N2c1cccc(C(F)(F)F)c1 (centres unmarked) [Example 37, 4-{3,6-Dimethyl-2,5-dioxo-1-[3-(trifluoromethyl)phenyl]-1H,2H,3H,4H,5H,6H,7H,8H-pyrido[4,3-d]pyrimidin-4-yl}-3-(1,3-oxazol-5-yl)benzonitrile]
IC50 [1]: 1.1 nM | IC50 [2]: < 1 nM | Papp A→B at 10 µM [3]: 32 ×10⁻⁶ cm/s | Papp B→A at 10 µM [3]: 90 ×10⁻⁶ cm/s | half-life at 1 μM [4]: > 2.17 h | solubility at 24 h [5]: 60 µg/mL (≈ 118 µM) | solubility [7]: ≥ 10 µg/mL

CN1CCC2=C(C1=O)C(c1ccc(C#N)cc1C(N)=O)N(C)C(=O)N2c1cccc(C(F)(F)F)c1 (centres unmarked) [Example 39, 5-Cyano-2-{3,6-dimethyl-2,5-dioxo-1-[3-(trifluoromethyl)phenyl]-1H,2H,3H,4H,5H,6H,7H,8H-pyrido[4,3-d]pyrimidin-4-yl}benzamide]
IC50 [1]: < 1 nM | IC50 [2]: < 1 nM | Papp A→B at 10 µM [3]: 4.2 ×10⁻⁶ cm/s | Papp B→A at 10 µM [3]: 59 ×10⁻⁶ cm/s | half-life at 1 μM [4]: > 2.17 h | solubility at 24 h [5]: 78 µg/mL (≈ 161 µM)

CN1C(=O)N(c2cccc(C(F)(F)F)c2)C2=C(C(=O)NCC2)C1c1ccc(C#N)cc1S(C)(=O)=O (centres unmarked) [Example 40, 3-Methanesulfonyl-4-{3-methyl-2,5-dioxo-1-[3-(trifluoromethyl)phenyl]-1H,2H,3H,4H,5H,6H,7H,8H-pyrido[4,3-d]pyrimidin-4-yl}benzonitrile]
IC50 [1]: < 1 nM | IC50 [2]: < 1 nM | Papp A→B at 10 µM [3]: 17 ×10⁻⁶ cm/s | Papp B→A at 10 µM [3]: 87 ×10⁻⁶ cm/s | half-life at 1 μM [4]: > 2.17 h | CLhep predicted at 1 μM [6]: 1 mL/min/kg
